Experimental data as given in patent publication US11136370B2, “Compositions and methods for thrombin generation assay” (The Scripps Research Institute, priority 2016, dated 2021).
Entries after “also recorded” stand apart in the source; their conditions may differ.

Legend:
[1] = Plasma concentration in treated patients; format: in vivo; conditions: human, oral, n=10, 2 hours after drug intake
[2] = full anticoagulant dosage; cited from earlier work
FXa WT = target: T1, FXa WT (Homo sapiens, UniProt P00742); test: FVIIIa generation by FXa WT in stable complex with TF-iFVIIa-NAPc2; format: biochemical; conditions: 1 nM rivaroxaban
T1 construct: TF-associated FVIIa has converted FX into FXa active protease

thrombin generation (TG) = test: TG in reactions with purified components (FVIIa, FIXa, rTF, FX, FV, prothrombin, TFPIα); format: biochemical, human; conditions: therapeutic doses
Procedure: Thrombin was quantified with a fluorogenic substrate for calculation of % inhibition. […] Reactions were initiated by 100 pM FXa with 50 pM rTF as the phospholipid surface (top); or the preformed complex of 50 pM TF, 100 pM iFVIIa, 100 pM FXa, 5 nM NAPc2 (middle); or 50 pM TF/200 pM FVIIa/135 nM FX (bottom) in mixtures of 0.7 nM FVIII, 3 nM FV, 200 nM lepirudin, 10 nM TFPI, and 2.5 mM CaCl2 incubated for 120 s at 37° C. […] (n=3-4). […] Endogenous thrombin potential (ETP, right) was calculated from the area under the TG curve (n=2). Results in (E) and (F) are shown as 25th-75th percentile bars with min to max whiskers or min to max bars (when n≤3) with a line at the median. Differences were evaluated with the ANOVA/Tukey test (performed after log 10 transformation of the data shown in E); *P<0.05, ***P<0.001.
The synthetic reaction mixtures comprised 0.7 nM FVIII, 3 nM FV, 135 nM FX, 104 prothrombin in 50 mM Tris-buffered saline, pH 7.4, with 0.1% BSA. […] Reactions to prevent thrombin effects were carried out in the presence of 200 nM lepirudin or 4 μM DAPA. […] Generation of FXa, FIIa and thrombin were evaluated by measuring amidolytic activity toward the chromogenic substrate S-2765 (180 μM; N-α-benzyloxycarbonyl-D-arginyl-L-glycyl-L-arginine-p-nitroaniline; DiaPharma, West Chester, Ohio) and the fluorogenic substrate Z-Gly-Gly-Arg-AMC (360 μM) respectively.

[3] = system: fibrillar collagen type I; test: Blood perfusion over fibrillar collagen type I, volume of platelet aggregates and fibrin; format: cell-based, human; conditions: blood of treated patients, collagen surface
Procedure: The volume of platelet aggregates and deposited fibrin was measured by confocal microscopy. Statistical analysis by one-way ANOVA and Tukey post-test. *P<0.05; **P<0.01; ***P<0.001.
Glass coverslips treated with 0.2 mg/ml poly-L-lysine for 6 h at 37° C. were coated with rTF for 18-20 hours at 37° C. or 2.5 mg/ml acid-insoluble type I collagen for 2 hours at 22-25° C. Then they were rinsed with pH 7.4 buffered-saline, assembled in a rectangular flow chamber with a 125 μm-high silicon gasket and positioned on a confocal microscope stage for analysis. Venous blood for testing was collected into final 10.9 mM trisodium citrate using a plastic syringe for normal volunteers or Vacutainer tubes (Becton Dickinson, Buccinasco, Milan) for patients and controls. Before perfusion at a flow rate yielding an initial wall shear rate of 300 s^−1 maintained with a syringe pump (Harvard Apparatus, Holliston, Mass.), CaCl2 was added to obtain 1.29 mM Ca^2+. In the blood of patients—potentially hypercoagulable—and related controls, lepirudin (50 nM) was also added to neutralize thrombin possibly generated before testing. […] For experiments with WT and mutant FVIIa, cells from group O citrated blood, containing 50 μg/ml CTI and 10 U/ml (ADPase activity) apyrase, were washed free of plasma by sequential centrifugation steps at 1500 g for 7 min. After the first, plasma was replaced with an equal volume of calcium-free Tyrode buffer, pH 6.5, with 5 U/ml apyrase; then with buffer and 1.25 U/ml apyrase; and finally with human FVII deficient plasma (George King Bio-Medical, Overland Park, Kans.) up to the original blood volume. […] Experiments in Milan (Italy) were performed with a Leica TCS SP5 microscope and HCX PL APO 63x/1.40 NA oil immersion objective (Leica Microsystems GmbH, Wetzlar, Germany); in La Jolla (California) with a Zeiss Axiovert 135M/LSM 410 and Plan-Apochromat 40x/1.40 NA oil immersion objective (Carl Zeiss AG, Oberkochen, Germany).
Platelets adhering and aggregating onto the surface were visualized by adding quinacrine-HCl (mepacrine; 10 μg/ml; Sigma-Aldrich) to blood. Deposited fibrin was visualized with Alexa Fluor 546-labeled (Invitrogen) mouse monoclonal IgG (50 μg/ml) specific for the B chain of mouse and human fibrin (HB-8545; ATCC). […] This was followed by buffer (DMEM) for 2 minutes to facilitate fibrin quantification by confocal z section analysis using a Zeiss Axiovert 135M/LSM 410 microscope (Carl Zeiss) and Plan-Apochromat×63/1.40 NA oil immersion objective. […] Deposited fibrin volume was measured from confocal sections collected at 4 preset positions in the flow chamber. Total volume of deposited platelets and fibrin was calculated from the sum of the respective area coverage per section multiplied by the z interval (2 μm). […]

immobilized rTF = test: Blood perfusion over immobilized rTF, volume of platelet aggregates and fibrin; format: cell-based, human
Procedure: Glass coverslips treated with 0.2 mg/ml poly-L-lysine for 6 h at 37° C. were coated with rTF for 18-20 hours at 37° C. or 2.5 mg/ml acid-insoluble type I collagen for 2 hours at 22-25° C. Then they were rinsed with pH 7.4 buffered-saline, assembled in a rectangular flow chamber with a 125 μm-high silicon gasket and positioned on a confocal microscope stage for analysis. Venous blood for testing was collected into final 10.9 mM trisodium citrate using a plastic syringe for normal volunteers or Vacutainer tubes (Becton Dickinson, Buccinasco, Milan) for patients and controls. Before perfusion at a flow rate yielding an initial wall shear rate of 300 s^−1 maintained with a syringe pump (Harvard Apparatus, Holliston, Mass.), CaCl2 was added to obtain 1.29 mM Ca^2+. In the blood of patients—potentially hypercoagulable—and related controls, lepirudin (50 nM) was also added to neutralize thrombin possibly generated before testing. […] For experiments with WT and mutant FVIIa, cells from group O citrated blood, containing 50 μg/ml CTI and 10 U/ml (ADPase activity) apyrase, were washed free of plasma by sequential centrifugation steps at 1500 g for 7 min. After the first, plasma was replaced with an equal volume of calcium-free Tyrode buffer, pH 6.5, with 5 U/ml apyrase; then with buffer and 1.25 U/ml apyrase; and finally with human FVII deficient plasma (George King Bio-Medical, Overland Park, Kans.) up to the original blood volume. Cell count results in reconstituted and native blood were within 90%. Experiments in Milan (Italy) were performed with a Leica TCS SP5 microscope and HCX PL APO 63x/1.40 NA oil immersion objective (Leica Microsystems GmbH, Wetzlar, Germany); in La Jolla (California) with a Zeiss Axiovert 135M/LSM 410 and Plan-Apochromat 40x/1.40 NA oil immersion objective (Carl Zeiss AG, Oberkochen, Germany).
Platelets adhering and aggregating onto the surface were visualized by adding quinacrine-HCl (mepacrine; 10 μg/ml; Sigma-Aldrich) to blood. Deposited fibrin was visualized with Alexa Fluor 546-labeled (Invitrogen) mouse monoclonal IgG (50 μg/ml) specific for the B chain of mouse and human fibrin (HB-8545; ATCC). Blood was perfused for 3-5 min at 37° C. with a syringe pump (Harvard Apparatus Inc.) at a flow rate yielding an initial (in the unobstructed flow path) wall shear rate of 300 s^−1. This was followed by buffer (DMEM) for 2 minutes to facilitate fibrin quantification by confocal z section analysis using a Zeiss Axiovert 135M/LSM 410 microscope (Carl Zeiss) and Plan-Apochromat×63/1.40 NA oil immersion objective. Image analysis was performed with NIH ImageJ64. Deposited fibrin volume was measured from confocal sections collected at 4 preset positions in the flow chamber. Total volume of deposited platelets and fibrin was calculated from the sum of the respective area coverage per section multiplied by the z interval (2 μm). All studies involving human subjects were conducted following institutionally approved protocols.
TF-coated glass coverslips were perfused with venous blood at a wall shear rate of 300 s^−1. A Zeiss Axiovert 135M/LSM 410 and Plan-Apochromat 40x/1.40 NA oil immersion objective (Carl Zeiss AG, Oberkochen, Germany) was used to visualize platelets/leukocytes and fibrin stained with mepacrine and a specific anti-body, respectively. Image analysis to calculate volumes was performed as described herein.
Glass coverslips treated with 0.2 mg/ml poly-L-lysine for 6 h at 37° C. were coated with rTF for 18-20 hours at 37° C., rinsed with buffered-saline and assembled in a rectangular flow chamber with a 125 μm-high silicon gasket. Venous blood was collected into final 10.9 mM trisodium citrate using a plastic syringe. CaCl2 was added to obtain 1.29 mM Ca^2+ before perfusion at a wall shear rate of 300 s-1 maintained with a syringe pump (Harvard Apparatus, Holliston, Mass.). […]

[4] = target: T2, pre-activated FXa either free or in a NAPc2-stabilized complex with TF-iFVIIa (Homo sapiens, UniProt P00742); test: FVIII activation (FVIIIa generation, WB) by pre-activated FXa, free or in NAPc2-stabilized complex; format: biochemical; conditions: therapeutic concentrations, 50-450 nM
T2 construct: purchased Haematologic Technologies (FXa); Siemens Healthcare Diagnostics (rTF, Dade Innovin)
T2 sequence (P00742 41-179 limits assumed): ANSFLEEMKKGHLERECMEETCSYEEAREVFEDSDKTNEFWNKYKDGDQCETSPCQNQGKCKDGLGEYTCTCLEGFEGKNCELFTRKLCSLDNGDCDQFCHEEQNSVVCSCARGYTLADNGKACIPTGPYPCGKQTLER
T2 sequence (P00742 235-488 limits assumed): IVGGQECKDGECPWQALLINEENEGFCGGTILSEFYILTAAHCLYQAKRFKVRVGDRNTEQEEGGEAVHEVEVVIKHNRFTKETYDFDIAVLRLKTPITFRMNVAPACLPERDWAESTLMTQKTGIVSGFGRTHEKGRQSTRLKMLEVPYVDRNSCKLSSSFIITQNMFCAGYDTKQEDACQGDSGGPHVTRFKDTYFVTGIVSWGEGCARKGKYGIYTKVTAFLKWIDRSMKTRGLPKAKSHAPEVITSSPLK
Procedure: (D) WB analysis (representing 2) of FVIIIa generation by pre-activated or de novo generated FXa and its inhibition by increasing concentrations of AT/penta. Reactions (37° C.) initiated by 200 pM FXa or 20 pM FVIIa with 50 nM FX into mixtures of 400 pM TF, 0.7 nM FVIII, 200 nM lepirudin without (top, incubation 60 s) or with (bottom, incubation 120 s) 3 nM FV/50 nM FIX. (E) Quantification (relative to non-inhibited control) of FVIIIa generated as in D (bottom) calibrated with known FVIIIa quantities (n=6-8 by nascent FXa, 4-6 by pre-formed FXa). […]
Coagulation reaction products were separated by reducing sodium dodecyl sulfate-polyacrylamide gel electrophoresis (SDS-PAGE), except for the analysis of FVIII activation in the presence of anti-FVIIa MoAbs that was performed under non-reducing conditions. […] Quantitative infrared detection of FVIIIa and FVa was obtained with IRDye 800CW-conjugated anti-mouse IgG or streptavidin followed by analysis with the Odyssey infrared imager (Li-COR, Lincoln, Nebr.). Concentrations were calculated by calibration with known quantities of FVIIIa and FVa. […]

T1 sequence (P00742 41-179 limits assumed): as the sequence (P00742 41-179 limits assumed) above
T1 sequence (P00742 235-488 limits assumed): as the sequence (P00742 235-488 limits assumed) above

SMILES: O=C(NC[C@H]1CN(c2ccc(N3CCOCC3=O)cc2)C(=O)O1)c1ccc(Cl)s1 [Rivaroxaban]
- concentration at 2 h [1]: 312 nM
- peak plasma concentration [2]: 500 nM
- effect on FVIII activation by FXa WT (FXa WT): almost completely inhibited
- effect on TG initiated by TF alone in reactions containing FIXa without FVIII (thrombin generation (TG)): inhibited
- mean volume of platelet aggregates vs controls [3]: not significantly different
- volume of deposited fibrin vs controls [3]: not significantly decreased; also recorded: not significantly different from normal
- fibrin deposition (immobilized rTF; blood of treated patients, high density TF surface): as low as in warfarin treated patients
- volume of deposited fibrin (immobilized rTF; blood of treated patients, higher rTF coating concentration, 300 s^-1, 5 min): significantly greater; also recorded: fibrin formation in the normal range
- volume of deposited fibrin vs untreated controls (immobilized rTF; blood of treated patients, lower rTF coating concentration, 300 s^-1, 5 min): markedly smaller
- volume of platelet aggregates vs controls (immobilized rTF; blood of treated patients, rTF coating 20 and 40 pM): non significantly different from controls
- fibrin volume (immobilized rTF; rivaroxaban added to normal blood in vitro at the concentration measured in treated patients): reduced fibrin volume partially
- inhibition of FVIII activation by pre-activated FXa [4]: ~90%
